Source: US7576105B2, “Benzyl substituted (piperidin-4-yl)aminobenzamido derivatives” (priority 2002, dated 2009)

Assays:
[1] = target: T1, δ-opioid receptor (Rattus norvegicus, UniProt P33533); test: Rat brain δ-opioid receptor binding assay; details: rat forebrain particulate preparation, [3H]DPDPE, 25° C.
T1 construct: from tissue; host or cells: rat forebrain homogenate (Wistar rat)

[2] = target: T2, μ-opioid receptor (Rattus norvegicus, UniProt P33535); test: Rat brain μ-opioid receptor binding assay; details: rat forebrain particulate preparation, [3H]DAMGO, 25° C.
T2 construct: from tissue; host or cells: rat forebrain homogenate (Wistar rat)

[3] = test system: acetylcholine bromide-induced abdominal constriction; details: mouse, in vivo

T2 sequence (P33535 whole entry): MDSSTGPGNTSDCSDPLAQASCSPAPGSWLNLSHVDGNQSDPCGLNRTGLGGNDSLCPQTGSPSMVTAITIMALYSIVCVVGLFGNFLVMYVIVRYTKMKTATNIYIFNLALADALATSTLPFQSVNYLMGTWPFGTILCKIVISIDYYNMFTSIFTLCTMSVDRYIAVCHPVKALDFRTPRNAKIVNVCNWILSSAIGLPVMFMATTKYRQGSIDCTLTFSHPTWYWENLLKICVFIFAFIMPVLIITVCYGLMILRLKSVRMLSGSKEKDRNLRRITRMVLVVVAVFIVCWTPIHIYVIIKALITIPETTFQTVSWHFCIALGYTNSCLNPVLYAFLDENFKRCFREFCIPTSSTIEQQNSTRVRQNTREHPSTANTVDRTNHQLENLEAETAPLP
T1 sequence (P33533 whole entry): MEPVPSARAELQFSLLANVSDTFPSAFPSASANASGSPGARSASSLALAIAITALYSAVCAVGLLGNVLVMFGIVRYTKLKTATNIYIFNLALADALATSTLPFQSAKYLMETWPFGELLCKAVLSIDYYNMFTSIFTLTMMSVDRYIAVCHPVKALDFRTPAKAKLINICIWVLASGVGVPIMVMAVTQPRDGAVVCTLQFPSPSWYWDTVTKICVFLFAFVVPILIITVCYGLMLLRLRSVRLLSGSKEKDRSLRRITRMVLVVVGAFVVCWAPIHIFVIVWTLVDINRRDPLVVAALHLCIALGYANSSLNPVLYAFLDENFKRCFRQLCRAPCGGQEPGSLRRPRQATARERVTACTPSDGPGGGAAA

## CCCN1CCC(N(Cc2cccc(OC)c2)c2ccc(C(=O)N(CC)CC)cc2)CC1 [Compound 1, N,N-diethyl-4-[3-methoxybenzyl(1-propylpiperidin-4-yl)amino]benzamide]
[1]
  Ki: 0.24 µM
[2]
  Ki: 9.28 µM

## CCCN1CCC(N(Cc2cccc(O)c2)c2ccc(C(=O)N(CC)CC)cc2)CC1 [Compound 2, N,N-Diethyl-4-[3-hydroxybenzyl(1-propylpiperidin-4-yl)amino]benzamide]
[3]
  MAIT % Inhibition @150 μmol/kg: 13.3%

## CCCN1CCC(N(Cc2ccccc2)c2ccc(C(=O)N(CC)CC)cc2)CC1 [Compound 7, N,N-Diethyl-4-[benzyl(1-propylpiperidin-4-yl)amino]benzamide]
[3]
  MAIT % Inhibition @150 μmol/kg: 100%

## CCCN1CCC(N(Cc2ccccc2O)c2ccc(C(=O)N(CC)CC)cc2)CC1 [Compound 5, N,N-Diethyl-4-[2-hydroxybenzyl(1-propylpiperidin-4-yl)amino]benzamide]
[1]
  Ki: 3.47 µM
[2]
  Ki: ≥ 10 µM

## CCN(CC)C(=O)c1ccc(N(Cc2ccccc2)C2CCN(CCCN(C)C)CC2)cc1 [Compound 11, N,N-Diethyl-4-[benzyl(1-[3-dimethylaminopropyl]piperidin-4-yl)amino]benzamide]
[1]
  Ki: 1.77 µM
[2]
  Ki: ≥ 10 µM

## C=CCN1CCC(N(Cc2ccccc2)c2ccc(C(=O)N(CC)CC)cc2)CC1 [Compound 9, N,N-Diethyl-4-[benzyl(1-allylpiperidin-4-yl)amino]benzamide]
[3]
  MAIT % Inhibition @150 μmol/kg: 84.6%

## CCN(CC)C(=O)c1ccc(N(Cc2ccccc2)C2CCNCC2)cc1 [Compound 8, N,N-Diethyl-4-[benzyl(piperidin-4-yl)amino]benzamide]
[3]
  MAIT % Inhibition @150 μmol/kg: 33.3%

## CCN(CC)C(=O)c1ccc(N(Cc2ccccc2)C2CCN(C(C)C)CC2)cc1 [Compound 10, N,N-Diethyl-4-[benzyl(1-isopropylpiperidin-4-yl)amino]benzamide]
[1]
  Ki: 0.585 µM
[2]
  Ki: 3.79 µM
